From patent US7232805B2, “Cobalamin conjugates for anti-tumor therapy” (Inflabloc Pharmaceuticals, Inc., priority 2003, dated 2007)

Tests used:
MCF-7 cells = experiment: CellTiter-Glo Luminescent Cell Viability Assay, MCF-7 cells; assay type: cell-based, human; settings: MCF-7, 96 hours, 100 μM down to 10 nM, FIG. 6a
From the text: FIGS. 6a-6d depict the results of in vitro assays of the conjugate against four cell lines. FIG. 6A is a chart depicting the results of the conjugate against MCF-7 cells, cells derived from a human breast cancer cell line. FIG. 6B is a chart depicting the results of the conjugate against SK-BR-3 cells, cells derived from a human breast adenocarcinoma cell line. FIG. 6C is a chart depicting the results of the conjugate against HL-60 cells, cells derived from a human promyelocytic leukemia cell line. FIG. 6D is a chart depicting the results of the conjugate against SK-N-MC cells, cells derived from a human brain neuroblastoma (neuroepithelioma) cell line. […]
(§1) After 96 hours, the effects of doxorubicin and B12-S-doxorubicin on cell viability were determined using an assay from Promega. The CellTiter-Glo™ Luminescent Cell Viability Assay quantitates the ATP present in a culture, which correlates with metabolically active cells. Luminescence, which is dependent on ATP concentration, was measured for each individual well on a Wallac MicroBeta® JET Liquid Scintillation and Luminescence Counter. The average luminescence value of the three wells containing medium alone was subtracted from the raw data values to give corrected values. […] The three corrected values for wells dosed with the same concentration of compound were averaged and the standard deviation calculated. […]

SK-N-MC cells = experiment: CellTiter-Glo Luminescent Cell Viability Assay, SK-N-MC cells; assay type: cell-based, human; settings: 96 hours, 100 μM down to 10 nM
From the text: FIG. 8 is a chart depicting the results of an in vitro assay of the stable conjugate against SK-N-MC cells, cells derived from a human brain neuroblastoma (neuroepithelioma) cell line. The assay employed is the CellTiter-Glo™ Luminescent Cell Viability Assay from Promega Corporation, which is recognized in the art as being predictive of the effect of a compound on cell viability. FIG. 8 depicts the results of the assay conducted according to Example 9. The method described by Promega Corporation (Technical Bulletin No. 288) was followed with no exceptions.
(§2) Doxorubicin and CobalaRubicin-200 stocks and stock solutions, prepared in 5% DMSO in water, were stored at −20° C. and protected from light. […]
as §1, with “Percent cell viability was calculated by considering” for “The three corrected values for wells dosed with”, “untreated cells as 100% viable.” for “same concentration of compound were averaged and the standard deviation calculated.”

[1] = tested on: normal murine lymph node cells; experiment: CellTiter-Glo Luminescent Cell Viability Assay, normal murine lymph node cells; assay type: cell-based; settings: 96 hours, FIG. 7
From the text: FIG. 7 is a chart depicting the results of an in vitro assay of the conjugate against normal murine lymph node cells. The assay employed is the CellTiter-Glo™ Luminescent Cell Viability Assay from Promega Corporation, which is recognized in the art as being predictive of the effect of a compound on cell viability. The assay is detailed in Example 8. The method described by Promega Corporation (Technical Bulletin No. 288) was followed with no exceptions.
as §2
as §1, with “calculated. Percent cell viability was calculated by considering the untreated cells as 100% viable.” for “calculated.”

[2] = systemic toxicity / MTD of free doxorubicin versus conjugate on a molar basis (separate study); assay type: in vivo, mice

In the case of `COc1cccc2c1C(=O)c1c(O)c3c(c(O)c1C2=O)C[C@@](O)(C(=O)CO)C[C@@H]3O[C@H]1C[C@H](NC(=O)OCc2ccc(NC(=O)[C@H](CCCCN)NC(=O)[C@H](Cc3ccccc3)NC(=O)CCCCCNC(=O)OC[C@H]3O[C@H](n4cnc5cc(C)c(C)cc54)[C@H](O)[C@@H]3OP(=O)(O)O[C@H](C)CNC(=O)CC[C@@]3(C)C4=C(C)C5=NC(=CC6=NC(=C(C)C7=N[C@@](C)([C@H](N4)[C@@H]3CC(N)=O)[C@@](C)(CC(N)=O)[C@@H]7CCC(N)=O)[C@@](C)(CC(N)=O)[C@@H]6CCC(N)=O)C(C)(C)[C@@H]5CCC(N)=O)cc2)[C@H](O)[C@H](C)O1` [conjugate 13, B12-5′-OCONH(CH2)5CO-Phe-Lys-PABC-Dox], the “cell viability versus free doxorubicin” value (MCF-7 cells) is reported as “same effectiveness as doxorubicin and is slightly less potent than doxorubicin”, the “cell viability / cytotoxicity” value (SK-N-MC cells; FIG. 6d and FIG. 8) is reported as “very efficacious” and the “cell viability / cytotoxicity” value (SK-N-MC cells; FIG. 6d and FIG. 8, listed as CobalaRubicin 200) is reported as “same effectiveness as doxorubicin and is slightly less potent than doxorubicin”. For the same molecule, the “cell viability versus free doxorubicin” value [1] was “as effective as doxorubicin but shows slightly less potency than doxorubicin”, the “lethality at the same high molar dose” value ([2]; free doxorubicin at the same high molar dose as the conjugate) was “not by the doxorubicin conjugate” and the “dose higher than that of free doxorubicin on a molar basis, still with less systemic toxicity” value ([2]; molar basis) was “at least 2.3 time”.
